In ChEMBL document CHEMBL1121591, “Synthesis and antitumor activity of 2,4-diamino-6-(2,5-dimethoxybenzyl)-5-methylpyrido[2,3-d]pyrimidine” (1980):

Tests used:
Type in all cases: functional
W256 = assay: Cytotoxic activity against the Walker 256 carcinosarcoma in rats; conditions: Rattus norvegicus, read-out: ED50 (the source's name)
L1210 = assay: Cytotoxic activity against the L1210 cell cultures; conditions: Mus musculus, read-out: ED50 (the source's name)
CCRF S-180 = assay: Cytotoxic activity against the S180 cell cultures; conditions: Mus musculus, read-out: ED50 (the source's name)

Compound	EC50 (W256) [µM]	EC50 (L1210) [µM]	EC50 (CCRF S-180) [µM]
CN(Cc1cnc2nc(N)nc(N)c2n1)c1ccc(C(=O)N[C@@H](CCC(=O)O)C(=O)O)cc1 [METHOTREXATE]	0.02	0.016	0.016
Cc1nc(N)nc(N)c1-c1ccc(Cl)c(Cl)c1 [METOPRINE]	0.05	0.22	0.05
COc1ccc(OC)c(Cc2cnc3nc(N)nc(N)c3c2C)c1 [PIRITREXIM]	0.008	0.002	0.012
